Measurements reported in PMC12668310, “High‐Throughput Synthesis and Screening of a Cyanimide Library Identifies Selective Inhibitors of ISG15‐Specific Protease mUSP18” (Angewandte Chemie (International Ed. in English), 2025).

Biological target: T1, mUSP18 (Mus musculus, UniProt Q9WTV6)
T1 construct: (46-368); His-tag (N); made in house
T1 sequence (Q9WTV6 46-368): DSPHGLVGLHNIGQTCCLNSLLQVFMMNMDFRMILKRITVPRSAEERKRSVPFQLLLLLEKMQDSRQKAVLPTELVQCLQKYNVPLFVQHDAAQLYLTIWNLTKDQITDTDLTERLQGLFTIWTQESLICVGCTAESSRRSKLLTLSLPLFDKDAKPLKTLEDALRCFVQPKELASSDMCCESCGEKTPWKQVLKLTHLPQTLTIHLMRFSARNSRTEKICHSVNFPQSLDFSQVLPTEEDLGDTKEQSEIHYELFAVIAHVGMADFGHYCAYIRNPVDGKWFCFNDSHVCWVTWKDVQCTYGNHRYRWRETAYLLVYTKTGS
Experiment: Covalent complex formation, intact protein mass spectrometry
Format: binding, murine
Conditions: 1.4 μM mUSP18, 14 µM compound, 30 min
Method: We further explored the potential of our mUSP18 hits. […] Based on previous data, these cyanimides likely bind to mUSP18 in a covalent manner. Indeed, intact protein mass spectrometry analysis confirmed the formation of a covalent stoichiometric mUSP18‐BB07CA902 complex, showing a mass difference of 311 Da, which corresponds to the addition of exactly one molecule of BB07CA902 (Figures 5c, S9). […] (Figure S9).
High-throughput screening
The screens were performed at room temperature in “flat bottom, non-treated, black […]
µM. The compounds (10 nL each) were transferred from the 1 mM daughter plates to the […]
Four wells containing DMSO
(10 nL) and four wells containing NEM (10 mM final concentration) were used in each plate […]
The percentage inhibition was calculated for each well using the […]
Where FIx is the fluorescence intensity of each well, FIpos is the average fluorescence intensity of the positive (NEM) control wells, and FIneg is the average fluorescence intensity of the negative (DMSO) control wells. […]
Samples were then diluted 3-fold with water and analyzed by mass spectrometry by injecting 2 μL into a Waters XEVO-G2 XS Q-TOF mass spectrometer equipped with an electrospray ion source in positive mode (capillary voltage 1.2 kV, desolvation gas flow 900 L/h, T = 60 °C) with a resolution of R = 26,000. […]

mass difference of covalent stoichiometric mUSP18-inhibitor complex: 311 Da
Compound: Cc1cc(C(=O)N[C@H]2C[C@@H]3CN(C#N)C[C@@H]3C2)ccc1C(C)C [BB07CA902]
